Results: the supplement of paper PMC5908809

What was measured:
[1] = test system: normal NK cells expanded with K562-aAPC; experiment: percent inhibition of viability; higher = more inhibition; conditions: 72 h, IL-2 2.5 ng/mL
Description: (§1)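 Drug sensitivity and resistance testing on K562-aAPC-expanded normal NK cells: 5 concentrations (10-fold steps over a 10,000-fold range), 72 h at 37 °C, viability by CellTiter-Glo normalised to DMSO and benzethonium chloride controls; DSS from the fitted curve.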

DERL-7 (IL-2 2.5 ng/mL) [2] = experiment: as above; conditions: 72 h
IMC-1 (IL-2 20 ng/mL) [3] = experiment: as above; conditions: 72 h
KAI3 (IL-2 2.5 ng/mL) [4] = experiment: as above; conditions: 72 h
KHYG-1 (IL-2 2.5 ng/mL) [5] = experiment: as above; conditions: 72 h
NK-92 (IL-2 2.5 ng/mL) [6] = experiment: as above; conditions: 72 h
NK-YS (IL-2 2.5 ng/mL) [7] = experiment: as above; conditions: 72 h
NKL (IL-2 2.5 ng/mL) [8] = experiment: as above; conditions: 72 h
SNK-6 (IL-2 2.5 ng/mL) [9] = experiment: as above; conditions: 72 h
YT (IL-2 2.5 ng/mL) [10] = experiment: as above; conditions: 72 h
[11] = test system: normal primary NK cells, pool 1 (3 donors) (IL-2 2.5 ng/mL); experiment: as above; conditions: 72 h
[12] = test system: normal primary NK cells, pool 1 (3 donors), resting (IL-2 0 ng/mL); experiment: as above; conditions: 72 h
[13] = test system: normal primary NK cells, pool 2 (3 donors) (IL-2 2.5 ng/mL); experiment: as above; conditions: 72 h
[14] = test system: normal primary NK cells, pool 3 (3 donors) (IL-2 2.5 ng/mL); experiment: as above; conditions: 72 h
[15] = test system: normal NK cells expanded with K562-aAPC; experiment: drug sensitivity score (DSS) (DSS units); higher = more sensitive; extreme values may be limits of the assay; conditions: 72 h; IL-2 2.5 ng/mL
Description: as §1

DERL-7 (IL-2 2.5 ng/mL) [16] = experiment: as above; conditions: 72 h
IMC-1 (IL-2 20 ng/mL) [17] = experiment: as above; conditions: 72 h
KAI3 (IL-2 2.5 ng/mL) [18] = experiment: as above; conditions: 72 h
KHYG-1 (IL-2 2.5 ng/mL) [19] = experiment: as above; conditions: 72 h
NK-92 (IL-2 2.5 ng/mL) [20] = experiment: as above; conditions: 72 h
NK-YS (IL-2 2.5 ng/mL) [21] = experiment: as above; conditions: 72 h
NKL (IL-2 2.5 ng/mL) [22] = experiment: as above; conditions: 72 h
SNK-6 (IL-2 2.5 ng/mL) [23] = experiment: as above; conditions: 72 h
YT (IL-2 2.5 ng/mL) [24] = experiment: as above; conditions: 72 h
[25] = test system: normal primary NK cells, pool 1 (3 donors) (IL-2 2.5 ng/mL); experiment: as above; conditions: 72 h
[26] = test system: normal primary NK cells, pool 1 (3 donors), resting (IL-2 0 ng/mL); experiment: as above; conditions: 72 h
[27] = test system: normal primary NK cells, pool 2 (3 donors) (IL-2 2.5 ng/mL); experiment: as above; conditions: 72 h
[28] = test system: normal primary NK cells, pool 3 (3 donors) (IL-2 2.5 ng/mL); experiment: as above; conditions: 72 h

O=C(O)CNC(=O)c1c(O)c2ccccc2n(Cc2ccccc2)c1=O [IOX-2] (max concentration tested 50000 nM)
percent inhibition of viability [%]
Conditions	5 nM	50 nM	500 nM	5000 nM	50000 nM
DERL-7 (IL-2 2.5 ng/mL) [2]	-0.5	5.58	5.28	-4.63	25.8
IMC-1 (IL-2 20 ng/mL) [3]	1.88	0.96	5.1	6.24	28.9
KAI3 (IL-2 2.5 ng/mL) [4]	-3.52	1.05	2.47	-3.92	11.8
KHYG-1 (IL-2 2.5 ng/mL) [5]	1.01	1.23	3.87	2.07	14.3
NK-92 (IL-2 2.5 ng/mL) [6]	-8.34	-11.4	3.46	-6.86	24.2
NK-YS (IL-2 2.5 ng/mL) [7]	0.04	-3.4	4.58	-1.43	25.9
NKL (IL-2 2.5 ng/mL) [8]	-6.3	-1.48	-3.38	1.11	28.3
SNK-6 (IL-2 2.5 ng/mL) [9]	5.46	-1.31	-7.77	8.49	43.1
YT (IL-2 2.5 ng/mL) [10]	-1.09	-0.73	1.54	-7.45	15.8
[1]	-0.06	6.04	5.91	6.68	23.3
[11]	3.1	-5.28	-1.2	-0.54	6.1
[12]	1.89	-6.6	3	-20.1	3.21
[13]	-14.4	0.63	-2.21	-3.15	4.77
[14]	-6.36	0.19	2.86	-4.87	13.1

Conditions	drug sensitivity score
DERL-7 (IL-2 2.5 ng/mL) [16]	0.77
IMC-1 (IL-2 20 ng/mL) [17]	2.14
KAI3 (IL-2 2.5 ng/mL) [18]	0.01
KHYG-1 (IL-2 2.5 ng/mL) [19]	0.37
NK-92 (IL-2 2.5 ng/mL) [20]	0.62
NK-YS (IL-2 2.5 ng/mL) [21]	0.91
NKL (IL-2 2.5 ng/mL) [22]	1.32
SNK-6 (IL-2 2.5 ng/mL) [23]	3.58
YT (IL-2 2.5 ng/mL) [24]	0.14
[15]	1.12
[25]	0
[26]	0
[27]	0
[28]	0.04

CC(=O)[C@]1(O)Cc2c(O)c3c(c(O)c2[C@@H](O[C@H]2C[C@H](N)[C@H](O)[C@H](C)O2)C1)C(=O)c1ccccc1C3=O [Idarubicin] (max concentration tested 1000 nM)
percent inhibition of viability [%]
Conditions	0.1 nM	1 nM	10 nM	100 nM	1000 nM
DERL-7 (IL-2 2.5 ng/mL) [2]	5.69	7.69	65.2	100	101
IMC-1 (IL-2 20 ng/mL) [3]	-7.47	-4.02	65.8	101	101
KAI3 (IL-2 2.5 ng/mL) [4]	12.1	20.2	75.2	88.7	108
KHYG-1 (IL-2 2.5 ng/mL) [5]	-9.43	1.7	74.3	108	110
NK-92 (IL-2 2.5 ng/mL) [6]	0.18	7.35	69.9	108	109
NK-YS (IL-2 2.5 ng/mL) [7]	-9.65	-1.39	71.5	80.4	107
NKL (IL-2 2.5 ng/mL) [8]	5.06	19.9	101	107	110
SNK-6 (IL-2 2.5 ng/mL) [9]	-5.01	-15.7	84.5	96.8	94.4
YT (IL-2 2.5 ng/mL) [10]	-10.7	-9.01	-4.8	100	110
[1]	1.32	-3	56.3	97.4	101
[11]	-4.61	-3.53	21.8	96.4	98.4
[12]	11	17.1	73.4	91.3	94
[13]	6.51	-1.19	51.6	94.8	97.9
[14]	4.34	4.31	46.5	98	100

Conditions	drug sensitivity score
DERL-7 (IL-2 2.5 ng/mL) [16]	26.1
IMC-1 (IL-2 20 ng/mL) [17]	25.6
KAI3 (IL-2 2.5 ng/mL) [18]	28.5
KHYG-1 (IL-2 2.5 ng/mL) [19]	26.5
NK-92 (IL-2 2.5 ng/mL) [20]	26.8
NK-YS (IL-2 2.5 ng/mL) [21]	26.4
NKL (IL-2 2.5 ng/mL) [22]	33.7
SNK-6 (IL-2 2.5 ng/mL) [23]	27.1
YT (IL-2 2.5 ng/mL) [24]	17.6
[15]	24.8
[25]	20.9
[26]	27.5
[27]	23.9
[28]	23.2

Cc1ccc(NC(=O)c2ccc(CN3CCN(C)CC3)cc2)cc1Nc1nccc(-c2cccnc2)n1 [Imatinib] (max concentration tested 10000 nM)
percent inhibition of viability [%]
Conditions	1 nM	10 nM	100 nM	1000 nM	10000 nM
DERL-7 (IL-2 2.5 ng/mL) [2]	0.4	-1.51	5.95	10.5	87.7
IMC-1 (IL-2 20 ng/mL) [3]	-6.61	-9.38	0.61	-5.6	101
KAI3 (IL-2 2.5 ng/mL) [4]	-2.16	-7.49	-4.01	-0.85	74.1
KHYG-1 (IL-2 2.5 ng/mL) [5]	-2.34	-9.57	-7.02	0.18	101
NK-92 (IL-2 2.5 ng/mL) [6]	-3.36	0.75	-2.9	7.24	63.5
NK-YS (IL-2 2.5 ng/mL) [7]	0.66	-5.53	-1.76	2.33	70.3
NKL (IL-2 2.5 ng/mL) [8]	-12.3	-12.6	-18.4	-6.32	71.4
SNK-6 (IL-2 2.5 ng/mL) [9]	-9.34	-11	-25.2	-21.8	56.1
YT (IL-2 2.5 ng/mL) [10]	-0.33	-5.36	0.48	5.22	96.3
[1]	-6.85	-3.28	-7.18	1.24	91.6
[11]	-6.14	-4.91	10.5	15.8	64.8
[12]	-3.96	-13.2	7.28	11.9	79
[13]	-11.8	-13	3.62	7.57	37.4
[14]	-7.45	-5.71	-0.28	8.35	31.7

Conditions	drug sensitivity score
DERL-7 (IL-2 2.5 ng/mL) [16]	6.62
IMC-1 (IL-2 20 ng/mL) [17]	5.24
KAI3 (IL-2 2.5 ng/mL) [18]	4.02
KHYG-1 (IL-2 2.5 ng/mL) [19]	5.74
NK-92 (IL-2 2.5 ng/mL) [20]	4.67
NK-YS (IL-2 2.5 ng/mL) [21]	4.18
NKL (IL-2 2.5 ng/mL) [22]	3.47
SNK-6 (IL-2 2.5 ng/mL) [23]	2.14
YT (IL-2 2.5 ng/mL) [24]	6.1
[15]	5.26
[25]	5.78
[26]	6.38
[27]	3.04
[28]	2.67
